Assay results published in publication PMC8584173, “The Cytotoxic Effect of Copper (II) Complexes with Halogenated 1,3-Disubstituted Arylthioureas on Cancer and Bacterial Cells” (International Journal of Molecular Sciences, 2021).
Where “and” joins values, the source holds several entries; their conditions need not be identical. Identical values can stand only once.

What was measured:
[1] = system: PC3 cells; experiment: Annexin V-FITC/PI flow cytometry, PC3; assay type: cell-based, human; settings: PC3, IC50 dose, 72 h
Method: The cells were cultured and harvested under the conditions described in the cell culture section. […] The effect of these compounds on the process of early and late apoptosis and necrosis was determined, as described previously, by dual staining with annexin V-FITC and propidium iodide according to manufacturer’s protocol (Becton Dickinson). The cells that were annexin V-FITC positive and PI-negative were identified as early apoptotic and annexin V-FITC and PI-positive as late apoptotic or necrotic.

[2] = system: interleukin-6 (IL-6); experiment: IL-6 level assay (ELISA); assay type: cell-based, human; settings: 72 h; for reduction of IL-6 secretion, times: PC3, IC50 dose; for reduction of IL-6 level, times / decrease of IL-6 level: SW480, IC50 dose, vs control
Method: IL-6 concentration at all studied cancer cells and normal HaCaT cell lines was measured by ELISA kit (Diaclon SAS Besancon Cedex, France). […] IL-6 in cell culture supernatant was measured using enzyme-linked immunosorbent assay in accordance with the manufacturer’s protocol.

[3] = system: Superoxide dismutase [Cu-Zn] (SODC_HUMAN); experiment: LC–MS proteome analysis, SODC; assay type: cell-based, Homo sapiens; settings: for Protein Intensity, % (SODC): IC50 concentration, % of control
Method: (§1) Enzymes involved in oxidoreductive potential were analyzed in the cell lysates obtained after treatment cells with selected conjugates for 24 h. Cells were washed with phosphate-buffered saline (PBS) and harvested, then centrifuged at 1000× g for 10 min. Then, lysis buffer (containing protease inhibitor, 1% RIPA Lysis and Extraction Buffer (ThermoFisher)) and cold PBS were added, and samples were sonicated three times in ice bath. Next, the cell lysates were centrifuged at 14,000× g at 4 °C for 15 min, and then supernatants were stored at […] before use. Protein concentration was measured by the Bradford method.
(§2) Normalized protein concentrations (5 µg) from cell lysate were precipitated by ice cold (–20 °C) acetonitrile (ACN, Merck, in ratio 1:4). Then, samples were centrifuged (–9 °C, 30 min., 18,000× g), the supernatant was discarded and ACN excess was evaporated using a vacuum centrifuge (5 min., room temp.). Protein pellet was dissolved in 40 mM ammonium bicarbonate. An amount of 500 mM dithiothreitol (DTT, with final concentration 20 mM) and 1 M iodoacetamide (IAA, with final concentration 40 mM) were used for reduction and alkylation processes. After 16 h of incubation in 37 °C with Trypsin Gold (Promega), digested protein samples were diluted with 0.1% formic acid (ThermoFisher) and centrifuged (+2 °C, 30 min, 18,000× g).
(§3) LC–MS analysis was carried out with the use of nanoUHPLC (nanoElute, Bruker) coupled by CaptiveSpray (Bruker) to ESI-Q-TOF mass spectrometer (Compact, Bruker). Two-column separation method was used, i.e., pre-column (300 µm × 5 mm, C18 PepMap 100, 5 µm, 100Å, Thermo Scientific) and Aurora separation column with CSI fitting (75 µm × 250 mm, C18 1.6 µm) in gradient 2% B to 35% B in 90 min with the 300 nL/min flow rate. Mobile phases (A) 0.1% formic acid in water and (B) 0.1% formic acid in ACN were used.
(§4) Sample ionizations were performed at a gas flow of 3.0 L/min, temperature of 150 °C and voltage of the capillary at 1600 V. The quadrupole energy was fixed to 5.0 eV and collision chamber energy 7.0 eV, with an ion transfer time of 90 µs. The ions were analyzed in the positive polarity mode in the range 150–2200 m/z, with the acquisition frequency of the 1 Hz spectrum, as well as with the autoMS/MS system.
(§5) The collected spectra were analyzed and calibrated using DataAnalysis software (Bruker) and then identified in ProteinScape (Bruker) by the MASCOT server. Protein identification was conducted using the online SwissProt and NCBIprot databases, and their references and biological significance were identified using Reactome.org, String.org and KEGG.

[4] = system: Superoxide dismutase [Mn], mitochondrial (SODM_HUMAN); experiment: LC–MS proteome analysis, SODM; assay type: cell-based, Homo sapiens; settings: IC50 concentration, % of control
Method: as §1, §2, §3, §4, §5

[5] = system: Peroxiredoxin-1 (PRDX1_HUMAN); experiment: LC–MS proteome analysis, PRDX1; assay type: cell-based, Homo sapiens; settings: IC50 concentration, % of control
Method: as §1, §2, §3, §4, §5

[6] = system: Peroxiredoxin-5, mitochondrial (PRDX5_HUMAN); experiment: LC–MS proteome analysis, PRDX5; assay type: cell-based, Homo sapiens; settings: IC50 concentration, % of control
Method: as §1, §2, §3, §4, §5

[7] = system: clinical methicillin-resistant strains of S. aureus (MRSA) and S. epidermidis (MRSE); experiment: MIC, clinical strains; assay type: cell-based, Staphylococcus
Method: (§6) The antimicrobial activity of the compounds was tested on Gram-positive bacteria (Staphylococcus aureus NCTC 4163, Staphylococcus aureus ATCC 25923, Staphylococcus aureus ATCC 6538, Staphylococcus aureus ATCC 29213, Staphylococcus epidermidis ATCC 12228, Staphylococcus epidermidis ATCC 35984), Gram-negative rods (Escherichia coli ATCC 10538, Escherichia coli ATCC 25922, Pseudomonas aeruginosa ATCC 15442, Pseudomonas aeruginosa ATCC 27863) and yeasts (Candida albicans ATCC 10231, Candida albicans ATCC 90028, Candida parapsilosis ATCC 22019). Hospital methicillin-resistant strains of Staphylococcus aureus and Staphylococcus epidermidis were obtained from the collection of the Department of Pharmaceutical Microbiology, Medical University of Warsaw, Poland.
(§7) Antifungal activities were assessed using Mueller–Hinton agar + 2% glucose and 0.5 µg/mL methylene blue dye medium. Sterile filter paper discs (9 mm diameter, Whatman Number 3 chromatography paper) were dripped with tested compound solutions (in dimethylsulfoxide, DMSO) to load 400 μg of a given compound per disc. Dry discs were placed on the surface of appropriate agar medium. The results (diameter of the growth inhibition zone) were read after 18 h of incubation at 35 °C. Minimal inhibitory concentration (MIC) was tested by the twofold serial microdilution method (in 96-well microtiter plates) using Mueller–Hinton broth medium (Beckton Dickinson) for bacteria or RPMI-1640 medium for Candida species, according to CLSI guidelines. The stock solution of tested agent was prepared in DMSO and diluted in sterile water. […] The final inoculum of all studied microorganisms was 10^5 CFU/ mL^−1 (colony forming units per ml). Minimal inhibitory concentrations (the lowest concentration of a tested agent that prevents visible growth of a microorganism) were read after 18 h (bacteria) or 24 h (yeasts) of incubation at 35 °C.

[8] = system: standard staphylococci; experiment: MIC, standard staphylococci; assay type: cell-based, Staphylococcus; settings: standard staphylococci / S. aureus isolates
Method: as §6, §7

[9] = system: detoxifying and ROS-scavenging enzymes (GST, GR, SOD, PRDX); experiment: LC–MS proteome analysis, all 12 tested enzymes (text summaries); assay type: cell-based, human; settings: PC3, IC50 concentration, span over enzymes
Method: as §1, §2
LC–MS analysis was carried out with the use of nanoUHPLC (nanoElute, Bruker) coupled by CaptiveSpray (Bruker) to ESI-Q-TOF mass spectrometer (Compact, Bruker). […]
as §4
The collected spectra were analyzed and calibrated using DataAnalysis software (Bruker) and then identified in ProteinScape (Bruker) by the MASCOT server. […]

[10] = system: hospital S. aureus (MRSA); experiment: MIC, hospital S. aureus; assay type: cell-based, Staphylococcus aureus; settings: for times stronger / more potent than ciprofloxacin: clinical S. aureus rods (six for 1–4, 7, 8)
Method: as §6, §7

Row | SMILES | early apoptosis, % of cells [1] | Protein Intensity, % (SODC) ([3]; PC3, 24 h) [%] | Protein Intensity, % (SODC) ([3]; SW480, 24 h) [%] | Protein Intensity, % (SODC) ([3]; SW620, 24 h) [%] | Protein Intensity, % (SODM) ([4]; PC3, 24 h) | Protein Intensity, % (SODM) ([4]; SW480, 24 h) [%] | Protein Intensity, % (SODM) ([4]; SW620, 24 h) [%] | Protein Intensity, % (PRDX1) ([5]; PC3, 24 h) [%] | Protein Intensity, % (PRDX1) ([5]; SW480, 24 h) [%] | Protein Intensity, % (PRDX1) ([5]; SW620, 24 h) [%] | Protein Intensity, % (PRDX5) ([6]; PC3, 24 h) | Protein Intensity, % (PRDX5) ([6]; SW480, 24 h) [%] | Protein Intensity, % (PRDX5) ([6]; SW620, 24 h) [%] | MIC [7] [µg/mL] | MIC [8] | reduction of intensity of the 12 tested enzymes [9] | also measured
1 | O=[N+]([O-])c1cc([N+]2=C(Nc3ccccc3Br)[S][Cu-2]23[S]C(Nc2ccccc2Br)=[N+]3c2ccc(Cl)c([N+](=O)[O-])c2)ccc1Cl [Compound 1, Copper (II) complex with 1-(2-bromophenyl)-3-(4-chloro-3-nitrophenyl)thiourea] | one third | 58.5 | 68.2 | 72.7 | 29% and 29.1% | 67.8 | 88.8 | 73.9 | 95.9 | 96.1 | 29% and 29.3% | 77.3 | 88.3 | 4 to 8 |  |  | reduction of IL-6 secretion, times [2]: 1.5 times; reduction of IL-6 level, times [2]: 1.9 times; reduction of IL-6 concentration, times ([2]; SW620, IC50 dose): 2.4 times
2 | O=[N+]([O-])c1cc([N+]2=C(Nc3cccc(Br)c3)[S][Cu-2]23[S]C(Nc2cccc(Br)c2)=[N+]3c2ccc(Cl)c([N+](=O)[O-])c2)ccc1Cl [Compound 2, Copper (II) complex with 1-(3-bromophenyl)-3-(4-chloro-3-nitrophenyl)thiourea] |  |  |  |  |  |  |  |  |  |  |  |  |  | 4 to 8 | 16 to 32 µg/mL |  | 
3 | O=[N+]([O-])c1cc([N+]2=C(Nc3ccc(Br)cc3)[S][Cu-2]23[S]C(Nc2ccc(Br)cc2)=[N+]3c2ccc(Cl)c([N+](=O)[O-])c2)ccc1Cl [Compound 3, Copper (II) complex with 1-(4-bromophenyl)-3-(4-chloro-3-nitrophenyl)thiourea] | 45.5% ± 3.5% | 30.9 | 75.3 | 78.2 | 31.2% | 77.7 | 77.1 | 47.8 | 88.5 | 89.0 | 40.9% | 84.8 | 82.4 |  |  | 29.4–69.1% | decrease of IL-6 level [2]: ≤ 30%; MIC ([10]; all evaluated hospital S. aureus): 4 µg/mL
4 | O=[N+]([O-])c1cc([N+]2=C(Nc3ccc(F)c(Cl)c3)[S][Cu-2]23[S]C(Nc2ccc(F)c(Cl)c2)=[N+]3c2ccc(Cl)c([N+](=O)[O-])c2)ccc1Cl [Compound 4, Copper (II) complex with 1-(3-chloro-4-fluorophenyl)-3-(4-chloro-3-nitrophenyl)thiourea] |  |  |  |  |  |  |  |  |  |  |  |  |  | 4 to 8 | 4 µg/mL |  | 
5 | O=[N+]([O-])c1cc([N+]2=C(Nc3ccc(Cl)c(Cl)c3)[S][Cu-2]23[S]C(Nc2ccc(Cl)c(Cl)c2)=[N+]3c2ccc(Cl)c([N+](=O)[O-])c2)ccc1Cl [Compound 5, Copper (II) complex with 1-(4-chloro-3-nitrophenyl)-3-(3,4-dichlorophenyl)thiourea] |  |  |  |  |  |  |  |  |  |  |  |  |  |  | 16 to 32 µg/mL and 32 µg/mL |  | times stronger / more potent than ciprofloxacin [10]: 4–16 times
6 | O=[N+]([O-])c1cc(NC2=[N+](c3ccc(Cl)c([N+](=O)[O-])c3)[Cu-2]3([S]2)[S]C(Nc2ccc(Cl)c([N+](=O)[O-])c2)=[N+]3c2ccc(Cl)c([N+](=O)[O-])c2)ccc1Cl [Compound 6, Copper (II) complex with 1,3-bis(4-chloro-3-nitrophenyl)thiourea] |  |  |  |  |  |  |  |  |  |  |  |  |  |  |  |  | times stronger / more potent than ciprofloxacin [10]: 4–16 times
7 | O=[N+]([O-])c1cc([N+]2=C(Nc3ccccc3F)[S][Cu-2]23[S]C(Nc2ccccc2F)=[N+]3c2ccc(Cl)c([N+](=O)[O-])c2)ccc1Cl [Compound 7, Copper (II) complex with 1-(2-fluorophenyl)-3-(4-chloro-3-nitrophenyl)thiourea] | one third | 15.4 | 40.6 | 44.7 | 25.2% | 65.1 | 45.3 | 46.5 | 71.6 | 83.2 | 36.7% | 91.0 | 81.4 | 4 to 8 | 16 to 32 µg/mL | 20.8-87.6% | decrease of IL-6 level [2]: ≤ 30%; reduction of SODC intensity ([3]; SW480, IC50 concentration): 59.4%
8 | O=[N+]([O-])c1cc([N+]2=C(Nc3ccc(I)cc3)[S][Cu-2]23[S]C(Nc2ccc(I)cc2)=[N+]3c2ccc(Cl)c([N+](=O)[O-])c2)ccc1Cl [Compound 8, Copper (II) complex with 1-(4-iodophenyl)-3-(4-chloro-3-nitrophenyl)thiourea] | 45.7% ± 3.3% | 33.0 | 88.2 | 64.5 | 29.4% | 94.3 | 92.7 | 52.3 | 84.4 | 93.5 | 42.0% | 81.7 | 74.4 | 4 to 8 | 4 µg/mL | 31.5–75.2% | reduction of IL-6 secretion, times [2]: almost twofold; reduction of IL-6 level, times [2]: twofold
